The target of this experiment is T1, Human MIF (MIF tautomerase) (Homo sapiens, UniProt P14174).
T1 construct: purchased ProSpec
T1 sequence (P14174 2-115 limits assumed): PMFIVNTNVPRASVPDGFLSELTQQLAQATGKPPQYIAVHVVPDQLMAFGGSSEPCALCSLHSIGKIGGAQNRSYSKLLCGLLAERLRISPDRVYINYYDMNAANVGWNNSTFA
Description: MIF Tautomerase Inhibitory Assay with L-Dopachrome Methyl Ester. Type of experiment: biochemical. Particulars: relative potency class, MIF tautomerase inhibition; L-dopachrome methyl ester substrate, pH 7.34, no pre-incubation; read-out: IC50. The procedure: MIF Tautomerase Inhibitory Assay with L-Dopachrome Methyl Ester
Assay Method (pH 7.34, 0.017-0.033% DMSO, 0.034% EtOH): A fresh stock solution of L-dopachrome methyl ester in MeOH was prepared at 55-65 mM through oxidation of L-3,4-dihydroxyphenylalanine methyl ester hydrochloride with sodium periodate according to the procedure described in WO9729635A1. MeOH was removed from 0.5 mL of the L-dopachrome methyl ester/MeOH solution (55-65 mM) under a stream of argon and the residue taken up in appropriate amount of water to prepare a substrate solution (7-10 mM). Active Human MIF (from ProSpec) ([…]) was dissolved in 675 μL 0.1% bovine serum albumin (BSA) in water, and the resultant MIF solution (1 volume) mixed with 55 volumes of Na2HPO4 buffer (50 mM, pH 7.34) to form a 265 ng/mL MIF working solution. MIF working solution (280 μL) or a no-MIF working solution (prepared by mixing 0.1% BSA (1 volume) with the aforementioned Na2HPO4 buffer (55 volumes)) was transferred to wells in a column of 8 wells on a 96-well plate in a Plate Reader (SPECTRAmax Plus 384, Molecular Devices), and 5 μL of H2O/DMSO (99/1) containing no inhibitor or an inhibitor (whose concentration was verified by HPLC). Without pre-mixing or pre-incubation, 10 μL freshly prepared L-dopachrome methyl ester/H2O solution (7-10 mM) was added to each well with a multi-pipet. The assay samples were mixed immediately by sucking up and expelling the contents of the wells three times with a multi-pipet. The absorbance (A1) at 475 nm was then recorded for each sample every 2 s for 3 min. After 5-6 min, the samples were monitored again for 3 min with a reading every two seconds at 475 nm (A2). It can be shown that when [substrate]<<Km, plots of Ln(A1−A2) versus time are linear with slopes m (Eq 1). IC50 values were estimated from Eq 2-5, the inhibitor concentration [I] in the assay mixture and values of m in the presence (mi), absence (mo) of the inhibitor, the value of m observed for the non-MIF blank (mn), the MIF concentration (e), and the specificity constant for the MIF catalyzed reaction (kcat/Km). Ln(A1−A2)=−mt (Eq 1) F=(mi−mn)/(mo−mn) (Eq 2) Wherein mo−mn=ekcat/Km (Eq 3) and mi−mn=(ekcat/Km)[…] (Eq 4) IC50=[I]F/(1−F) (Eq 5)
The compounds listed in Table 1, provided herein, were prepared via procedures identical or similar to those described in the Examples 1-85. The listed compounds were >95% pure by HPLC. Each listed compound yielded a mass spectrum consistent with its structure. Concentrations of MIF tautomerase inhibitors used in the assay were verified by HPLC and the extinction coefficients of the inhibitors. The designated relative potency of MIF tautomerase inhibitors is based on the IC50 as determined by the method described in Biochemical Assay as follows: A, IC50<1 μM; B, 1 μM≦IC50<5 μM; C, 5 μM≦IC50<10 μM; D, 10 μM≦IC50<50 μM; E, 50 μM≦IC50<200 μM.

These results are taken from US9617212B2, “Isoindolin-1-ones as macrophage migration inhibitory factor (MIF) inhibitors” (Controlled Chemicals, Inc., priority 2013, dated 2017).

Some results are limits rather than exact numbers.

As for `CNCCOc1cccc(OC[C@H]2CC[C@H](CN3Cc4ccc(O)c(F)c4C3=O)CC2)c1`, the concentration for half-maximal inhibition (IC50) was less than 1 µM. The value for `CNCCOc1cccc(OC(C)[C@H]2CC[C@H](CN3Cc4ccc(O)c(F)c4C3=O)CC2)c1` (some centres unmarked) was less than 1 µM.

On to `CC(Oc1cccc(OCCN(C)C)c1)[C@H]1CC[C@H](CN2Cc3ccc(O)c(F)c3C2=O)CC1` (some centres unmarked), for which the IC50 is less than 1 µM. The value for `CC(Oc1cccc(OCCN2CCOCC2)c1)[C@H]1CC[C@H](CN2Cc3ccc(O)c(F)c3C2=O)CC1` (some centres unmarked) was less than 1 µM; that for `O=C1OCc2ccc(OC[C@H]3CC[C@H](CN4Cc5ccc(O)cc5C4=O)CC3)cc21` was less than 1 µM.

Take `COc1cc(OC(C)[C@H]2CC[C@H](CN3Cc4ccc(O)c(F)c4C3=O)CC2)ccc1F` (some centres unmarked): the IC50 was less than 1 µM. As for `COc1cc(F)cc(OC[C@H]2CC[C@H](CN3Cc4ccc(O)cc4C3=O)CC2)c1`, the figure is less than 1 µM.

As for `CC(Oc1cccc(OC(F)(F)F)c1)[C@H]1CC[C@H](CN2Cc3ccc(O)c(F)c3C2=O)CC1` (some centres unmarked), the half-maximal inhibitory concentration (IC50) is less than 1 µM. With `CCC(Oc1cccc(OC(F)(F)F)c1)C1CCC(CN2Cc3ccc(O)c(F)c3C2=O)CC1` (centres unmarked), the half-maximal inhibitory concentration (IC50) is less than 1 µM.

On to `COc1cccc(OC(C)[C@H]2CC[C@H](CN3Cc4ccc(O)c(F)c4C3=O)CC2)c1` (some centres unmarked), for which the half-inhibitory concentration (IC50) is less than 1 µM. As for `CCC(Oc1cccc(OC)c1)[C@H]1CC[C@H](CN2Cc3ccc(O)c(F)c3C2=O)CC1` (some centres unmarked), the figure is less than 1 µM; as for `COc1cccc(OC[C@H]2CC[C@H](CN3Cc4ccc(O)cc4C3=O)CC2)c1`, less than 1 µM; as for `COc1cccc(OC(C)[C@H]2CC[C@H](CN3Cc4cc(F)c(O)c(F)c4C3=O)CC2)c1` (some centres unmarked), less than 1 µM. As for `O=C1c2cc(O)ccc2CN1C[C@H]1CC[C@H](COc2cccc(O)c2)CC1`, the figure is less than 1 µM. On to `CCCC(Oc1cccc(F)c1)[C@H]1CC[C@H](CN2Cc3ccc(O)cc3C2=O)CC1` (some centres unmarked), for which the IC50 is less than 1 µM. The value for `CC(Oc1cccc(F)c1)[C@H]1CC[C@H](CN2Cc3cc(F)c(O)c(F)c3C2=O)CC1` (some centres unmarked) was less than 1 µM. As for `CCC(Oc1cccc(F)c1)[C@H]1CC[C@H](CN2Cc3ccc(O)cc3C2=O)CC1` (some centres unmarked), the figure is less than 1 µM. Take `CC(Oc1cccc(F)c1)[C@H]1CC[C@H](CN2Cc3cc(F)c(O)cc3C2=O)CC1` (some centres unmarked): the 50% inhibitory concentration (IC50) was less than 1 µM. The value for `CC(Oc1cccc(F)c1)[C@H]1CC[C@H](CN2Cc3ccc(O)c(F)c3C2=O)CC1` (some centres unmarked) was less than 1 µM; that for `O=C1c2c(ccc(O)c2F)CN1C[C@H]1CC[C@H](COc2cccc(F)c2)CC1` was less than 1 µM. The value for `CC(Oc1cccc(F)c1)[C@H]1CC[C@H](CN2Cc3ccc(O)cc3C2=O)CC1` (some centres unmarked) was less than 1 µM.

On to `O=C1c2cc(O)ccc2CN1C[C@H]1CC[C@H](COc2cccc(F)c2)CC1`, for which the IC50 was less than 1 µM.

For `O=C1c2cc(O)ccc2CN1C[C@H]1CC[C@H](COc2ccccc2F)CC1`, the IC50 is less than 1 µM. The value for `O=C1c2cc(O)ccc2CN1C[C@H]1CC[C@H](COc2ccc(F)cc2)CC1` was less than 1 µM. The value for `O=C1c2cc(O)ccc2CN1C[C@H]1CC[C@H](COc2ccccc2)CC1` was less than 1 µM. As for `CC[C@@H](C(=O)OC(C)[C@H]1CC[C@H](CN2Cc3ccc(O)c(F)c3C2=O)CC1)c1ccccc1` (some centres unmarked), the figure is less than 1 µM; as for `CCC(C(=O)OC(C)[C@H]1CC[C@H](CN2Cc3cc(F)c(O)cc3C2=O)CC1)c1ccccc1` (some centres unmarked), less than 1 µM; as for `CC(OC(=O)c1ccccc1)[C@H]1CC[C@H](CN2Cc3ccc(O)c(F)c3C2=O)CC1` (some centres unmarked), less than 1 µM. `CC(OC(=O)CCC(=O)O)[C@H]1CC[C@H](CN2Cc3ccc(O)c(F)c3C2=O)CC1` (some centres unmarked): the half-inhibitory concentration (IC50) was less than 1 µM. For the molecule `O=C1c2cc(O)ccc2CN1C[C@H]1CC[C@H](C(=O)N2CCCCC2)CC1`, the concentration for half-maximal inhibition (IC50) was less than 1 µM. For the molecule `CC(C)(C)COC(=O)[C@H]1CC[C@H](CN2Cc3ccc(O)cc3C2=O)CC1`, the IC50 was less than 1 µM.

On to `CC(C)OC(=O)[C@H]1CC[C@H](CN2Cc3ccc(O)cc3C2=O)CC1`, for which the IC50 is less than 1 µM.

For the molecule `COC(=O)[C@H]1CC[C@H](CN2Cc3ccc(O)cc3C2=O)CC1`, the concentration for half-maximal inhibition (IC50) is less than 1 µM. As for `CC(=O)OC(CCC1CCCCC1)[C@H]1CC[C@H](CN2Cc3ccc(O)cc3C2=O)CC1` (some centres unmarked), the figure is less than 1 µM; as for `CCOC(CCC1CCCCC1)[C@H]1CC[C@H](CN2Cc3ccc(O)cc3C2=O)CC1` (some centres unmarked), less than 1 µM; as for `O=C1c2cc(O)ccc2CN1C[C@H]1CC[C@H](C(O)CCC2CCCCC2)CC1` (some centres unmarked), less than 1 µM. As for `O=C1c2cc(O)ccc2CN1C[C@H]1CC[C@H](C(=O)OC2CCCC2)CC1`, the figure is 5 to 10 µM.

Regarding `O=C1c2cc(O)ccc2CN1C[C@H]1CC[C@H](C(=O)OC2CCCCCC2)CC1`, the half-inhibitory concentration (IC50) lay in the range of 5 to 10 µM. As to `O=C1c2cc(O)ccc2CN1CCc1cccc(F)c1`, the half-maximal inhibitory concentration (IC50) is 5 to 10 µM. As for `O=C1c2cc(O)ccc2CN1CCc1ccccc1`, the figure is 5 to 10 µM; as for `O=C1c2cc(O)ccc2CN1CCC1CCCCC1`, 5 to 10 µM; as for `O=C1c2cc(O)ccc2CN1C1CCCCC1`, 5 to 10 µM.

Consider `O=C1c2cc(O)ccc2CN1C1CCCCCC1`, for which the half-maximal inhibitory concentration (IC50) is 5 to 10 µM.

For the molecule `COC(=O)CCN1Cc2ccc(O)cc2C1=O`, the IC50 is 5 to 10 µM. As for `COC(=O)CCCN1Cc2ccc(O)cc2C1=O`, the figure is 5 to 10 µM. The value for `O=C(OC1CCCCC1)c1ccc(CN2Cc3ccc(O)cc3C2=O)cc1` was 10 to 50 µM. As to `O=C1c2cc(O)ccc2CN1[C@@H](CO)C1CCCCC1`, the 50% inhibitory concentration (IC50) fell in the range of 10 to 50 µM. As for `O=C1c2cc(O)ccc2CN1[C@H](CO)C1CCCCC1`, the figure is 10 to 50 µM; as for `CC1CCCCC1N1Cc2ccc(O)cc2C1=O` (centres unmarked), 10 to 50 µM. As for `O=C1c2cc(O)ccc2CN1[C@H]1CC[C@H](O)CC1`, the figure is 10 to 50 µM; as for `CC(CC1CCCCC1)N1Cc2ccc(O)cc2C1=O` (centres unmarked), 10 to 50 µM. As for `O=C1c2cc(O)ccc2CN1CCc1ccc(F)cc1`, the 50% inhibitory concentration (IC50) fell in the range of 10 to 50 µM.

Take `O=C1c2cc(O)ccc2CN1Cc1ccccc1`: the IC50 is 10 to 50 µM. On to `CCOC(=O)CN1Cc2ccc(O)cc2C1=O`, for which the IC50 fell in the range of 50 to 200 µM. The value for `CC(Oc1cccc(F)c1)[C@H]1CC[C@H](CN2Cc3cc(F)c(O)cc3C2=O)CC1` (mixture of isomers) [drawing 62] was less than 1 µM. As for `CC(Oc1cccc(F)c1)[C@H]1CC[C@H](CN2Cc3cc(F)c(O)cc3C2=O)CC1` (mixture of isomers) [drawing 63], the figure is less than 1 µM; as for `COC(=O)[C@@H](CO)NC(C)[C@H]1CC[C@H](CN2Cc3ccc(O)c(F)c3C2=O)CC1` (single isomer, unassigned), less than 1 µM.

In the case of `CC(N[C@H](CO)C(=O)O)[C@H]1CC[C@H](CN2Cc3ccc(O)c(F)c3C2=O)CC1` (single isomer, unassigned), the IC50 is less than 1 µM. Regarding `COC(=O)[C@H](NC(C)[C@H]1CC[C@H](CN2Cc3ccc(O)c(F)c3C2=O)CC1)C(C)C` (single isomer, unassigned), the IC50 was less than 1 µM. As for `CC(C)[C@@H](NC(C)[C@H]1CC[C@H](CN2Cc3ccc(O)c(F)c3C2=O)CC1)C(=O)O` (single isomer, unassigned), the figure is less than 1 µM. Consider `COC(=O)[C@H](C)NC(C)[C@H]1CC[C@H](CN2Cc3ccc(O)c(F)c3C2=O)CC1` (single isomer, unassigned), for which the half-inhibitory concentration (IC50) was less than 1 µM.

In the case of `CC(N[C@H](C)C(=O)O)[C@H]1CC[C@H](CN2Cc3ccc(O)c(F)c3C2=O)CC1` (single isomer, unassigned), the half-maximal inhibitory concentration (IC50) is less than 1 µM.
